Measurements published in patent US10544075B2 (OREGON HEALTH & SCIENCE UNIVERSITY, priority 2016, dated 2020).

How the values were obtained:
[1] = Single time-point drug distribution of parent drugs from amides in brain and serum; format: in vivo, C57Bl/6 mice; conditions: equimolar systemic dose of 3.05 μmol/kg, 1 hour, brain
Experimental: Wild type male C57Bl/6 mice, aged 8-10 weeks, were housed in a climate-controlled room with a 12 hour light-dark cycle with ad libitum access to food and water. To compare the single time-point drug distribution of JD-20 with JD-20 generated from the amide MA-JD20, and JD-21 with JD-21 generated from the amide MA-JD-21, the concentrations of the parent drugs were analyzed in brain and serum of mice by administering a dose of 3.05 μmol/kg (three mice per dose) with JD-20, JD-21, MA-JD20 and MA-JD21 both intraperitoneally and orally. The compounds were dissolved in a mixture of 50:50 DMSO and 0.9% sodium chloride bacteriostatic solution. Oral gavage was performed with the use of plastic feeding tubes (20 ga×38 mm, Instech Laboratories Inc., PA, USA) connected to […] insulin syringes (Covidien LLC MA, USA). In both experiments, the mice were euthanized after 1 hour following drug administration.
The tissues were processed as follows: The brains were collected in previously weighed homogenizer tubes with 3 Gold Spec ⅛ chrome steel balls (Applied Industrial Technologies) and immediately frozen at −80° C. The blood samples were kept on ice for 30 mins and then spun down at 5400×G at 4° C. for 15 min. […]
The serum samples were warmed to room temperature. […] The serum samples thus prepared were submitted for LC-MS/MS analysis to quantify the amount of free JD-20 or JD-21. […]

Human FAAH = Human FAAH (Homo sapiens (Human), UniProt O00519); test: FAAH activity in cell homogenate; format: biochemical
Chain of Human FAAH (O00519 whole entry): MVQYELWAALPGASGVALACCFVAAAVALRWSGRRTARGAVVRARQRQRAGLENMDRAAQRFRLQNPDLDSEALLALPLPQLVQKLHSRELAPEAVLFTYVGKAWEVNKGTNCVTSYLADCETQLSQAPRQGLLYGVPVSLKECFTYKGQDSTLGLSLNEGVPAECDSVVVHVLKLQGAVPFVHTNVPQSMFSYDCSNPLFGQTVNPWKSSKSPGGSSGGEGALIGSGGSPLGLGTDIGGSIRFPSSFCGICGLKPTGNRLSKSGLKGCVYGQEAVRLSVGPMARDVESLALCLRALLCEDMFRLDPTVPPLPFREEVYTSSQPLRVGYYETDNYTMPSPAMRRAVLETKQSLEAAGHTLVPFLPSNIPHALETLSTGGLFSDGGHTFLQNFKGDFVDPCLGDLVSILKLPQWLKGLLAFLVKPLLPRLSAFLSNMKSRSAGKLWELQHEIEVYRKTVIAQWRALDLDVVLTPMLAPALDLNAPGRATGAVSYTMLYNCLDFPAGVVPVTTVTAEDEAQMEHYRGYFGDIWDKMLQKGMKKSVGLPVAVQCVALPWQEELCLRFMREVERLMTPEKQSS
Experimental: COS-7 cells (ATCC CRL-1651) were cultured in Dulbecco's Modified Eagle's Medium supplemented with 10% FBS, penicillin ([…]), and streptomycin ([…]). Cells (800,000/well) were seeded into 6-well plates (Falcon 353046) and left to adhere overnight. Cells were transfected with pcDNA4-FAAH-FLAG with Lipofectamine 2000 (Invitrogen) according to the manufacturer's protocol. Mock transfection controls were done with transfection reagent and no DNA. Cells were washed 4-days post transfection with cold PBS and scraped into TE buffer (125 mM Tris, 1 mM EDTA, pH 9) and sonicated (10 sec, 60 Sonic Dismembrator, Fisher). Cell homogenates were stored at −80° C. and protein concentrations were determined by BCA (Pierce). Cell homogenates were diluted into TE buffer containing 0.1% fatty-acid free BSA (Alfa Aesar). Substrates were added as 50× stocks in DMSO into 50 μL aliquots of homogenate to a final concentration of 100 μM. Reactions were performed with homogenate protein at 31.25 μg/mL for 15 min at 37° C. Reactions were quenched with 100 μL acetonitrile and vortexed for 20 s. Samples were clarified by centrifuge (10,000 rpm, 15 min, 4° C.). The supernatant is diluted 50-fold into 2:1 MeCN:H2O containing 300 nM d11-arachindonic acid and 30 nM d6-sobetirome. Samples were centrifuged again (13,200 rpm, 15 min, 4° C.). Products were quantified by LC/MS-MS with standard curves generated from mock samples. Observed rates are expressed as nmol product per mg protein homogenate per min.
FAAH was overexpressed in COS-7 cells as described above and cell homogenate was used to measure observed rates of substrate cleavage compared with the classic endogenous FAAH substrate anandamide (AEA). Substrate were all tested at 100 μM. Compared to AEA, the thyromimetic amides MA-GC 1 (9-fold), MA-JD20 (31-fold), and MA-JD21 (20-fold) show decreased rates. […] Observed rates are expressed as nmol product per mg homogenate protein per min.

[2] = 24 h time-course study after oral dose of MA-JD20; format: in vivo, mice; conditions: oral MA-JD20, JD-20 measured
Experimental: As a follow-up of the single time point study, a 24 h time course study through oral gavage was performed for the amides, MA-JD20 and MA-JD21, and the corresponding JD-20 or JD-21 concentrations were measured in brain and blood of mice. Pharmacokinetic time-course curves were generated from these analyses and area under the curve (AUC) values for brain and blood were obtained.
Following the single time point drug distribution evaluation, to further understand the pharmacokinetic properties of the amide, a 24 h time-course study was conducted by administering an oral dose of […] of MA-JD20 to mice. The JD-20 concentrations generated in brain and blood were analyzed and area under the curve (AUC) values for brain and serum were obtained (FIG. 7). The AUCbrain/AUCserum ratio for amide MA-JD-20 is observed to be 0.89. […] The results obtained from the single point drug distribution were confirmed by the AUC analyses.

SMILES: CNC(=O)COc1cc(Br)c(Cc2ccc(O)c(C(C)C)c2)c(Br)c1 [MA-JD20, 2-(3,5-dibromo-4-(4-hydroxy-3-isopropylbenzyl)phenoxy)-N-methylacetamide]
- parent drug delivered to the CNS compared to unmodified JD-20 or JD-21 [1]: delivers more of the parent drugs to the CNS
- FAAH substrate (Human FAAH; 100 μM, COS-7 cell homogenate): substrates for fatty-acid amide hydrolase (FAAH)
- decreased observed rate of substrate cleavage compared to AEA (Human FAAH; substrate 100 μM, FAAH overexpressed in COS-7 cell homogenate): 31 fold
- Cmax and Tmax time in the brain tissue [2]: around 2 h
